Measurements as given in patent US5869500A, “Pyridone compounds useful in treating Alzheimer's disease” (Hoffmann-La Roche Inc., priority 1996, dated 1999).
pIC50: −log10 of the molar value.

System: Aβ production in HEK cells over-expressing mutated β-APP (SFAD)
Experiment: Aβ production inhibition, sandwich-ELISA in HEK cells, over-expressed mutated β-APP (SE-SFAD)
Type: cell-based, human
Conditions: Homo sapiens, HEK293, HEK cells; for Emax: maximum inhibition plateau, read-out: SE-SFAD max. inhibition %; for pIC50: based on the respective plateau of maximum inhibition
Procedure: The effect of test substances on the inhibition of Aβ-amyloid production can be measured in the supernatant of cell cultures of β-APP expressed cells using ELISA tests or other quantitative determination methods for β-APP degradation products. Typically, 8×10^5 cells (e.g. HEK cells, which express recombinant human β-APP variants) are plated out in each well of a culture dish having 24 wells in growth media such as e.g. OPTIMEM (Gibco) and the test compound is then added. After an incubation period of 24 to 48 hours at 37° C. in a 10% CO2 atmosphere the supernatant is removed from the cell cultures and the β-APP degradation products (e.g. Aβ or β-[…]) are determined with the aid of ELISA (or sandwich ELISA) analysis or by means of quantitative immunoprecipitation (after metabolic radiolabelling of the cell proteins). Typically, 300 μl of the cell supernatant are tested according to the state of the art for ELISA tests in culture dishes having 96 wells. In the case of sandwich ELISA for Aβ, the binding antibody can be directed against the first 16 amino acids of Aβ-peptide (e.g. 6E10 Senetek, Maryland Heights, Mo.) and the detection antibody can be directed against amino acids 17-40 or 17-42 of Aβ and carries a detection system such as e.g. peroxidase. A simple ELISA test with an antibody, e.g. 22C11 (Boehringer Mannheim), can be used as the test for […]; the second antibody can be an anti-(mouse) Ig having a detection system, such as e.g. peroxidase. The peroxidase reaction can be carried out e.g. using a TMB substrate (BioRAD) and the measurements can be carried out at 650 nm using an ELISA reading apparatus. […] SE-SFAD signifies the Aβ production inhibition measured using sandwich-ELISA in HEK cells, SFAD signifies over-expressed mutated β-APP, and SE-WT signifies the Aβ production inhibition measured using sandwich-ELISA in HEK cells which over-express Wild type β-APP. The IC50 values are based on the respective plateau of maximum inhibition.

Structure (SMILES) | Emax [%] | pIC50
CCOC(=O)c1cc(-c2ccc(-c3ccccc3)cc2)c(=O)n2ccc3ccsc3c12 [Compound 94, Ethyl 8-(biphenyl-4-yl)-7-oxo-7H-thieno[2,3-a]quinolizine-10-carboxylate] | 20 to 40 | 
COCCN(C(=O)c1cc(-c2ccc(C(C)(C)C)cc2)c(=O)n2ccc3ccsc3c12)c1ccccc1 [Compound 111, 8-(4-tert-Butyl-phenyl)-7-oxo-7H-thieno[2,3-a]quinolizine-10-carboxylicacid (2-methoxy-ethyl)-phenyl-amide] | 100 | 5.60
O=C(NC1CCCCC1O)c1cc(-c2ccccc2)c(=O)n2ccc3ccsc3c12 (centres unmarked) [Compound 25] | 100 | 5.00
C#CCN(C(=O)c1cc(-c2cccc(OC)c2)c(=O)n2ccc3ccsc3c12)c1ccccc1 [Compound 127, 8-(3-Methoxy-phenyl)-7-oxo-7H-thieno[2,3-a]quinolizine-10-carboxylic acid phenyl-prop-2-ynyl-amide] | 100 | 6.10
CCN(CCOC)C(=O)c1cc(-c2ccc(Oc3ccccc3)cc2)c(=O)n2ccc3ccsc3c12 [Compound 99, 7-Oxo-8-(4-phenoxy-phenyl)-7H-thieno[2,3-a]quinolizine-10-carboxylic acid ethyl-(2-methoxy-ethyl)-amide] | 100 | 5.60
C#CCN(C(=O)c1cc(-c2ccccc2OC)c(=O)n2ccc3ccsc3c12)c1ccccc1 [Compound 143, 8-(2-Methoxy-phenyl)-7-oxo-7H-thieno[2,3-a]quinolizine-10-carboxylic acid phenyl-prop-2-ynyl-amide] | 40 to 100 | 5.26
COCCN(C(=O)c1cc(-c2ccc(OC)cc2)c(=O)n2ccc3ccsc3c12)c1ccccc1 [Compound 147, 8-(4-Methoxy-phenyl)-7-oxo-7H-thieno[2,3-a]quinolizine-10-carboxylic acid (2-methoxy-ethyl)-phenyl-amide] | 100 | 5.82
COc1cccc(-c2cc(C(=O)Nc3ccc(OC)c(OC)c3)c3c4sccc4ccn3c2=O)c1 [Compound 123, 8-(3-Methoxy-phenyl)-7-oxo-7H-thieno[2,3-a]quinolizine-10-carboxylic acid (3,4-dimethoxy-phenyl)-amide] | 100 | 6.10
COCCN(CCOC)C(=O)c1cc(-c2ccc(OC)cc2)c(=O)n2ccc3ccsc3c12 [Compound 145, 8-(4-Methoxy-phenyl)-7-oxo-7H-thieno[2,3-a]quinolizine-10-carboxylic acid bis-(2-methoxy-ethyl)-amide] | 100 | 5.30
CCCN(CCOC)C(=O)c1cc(-c2ccc(OCc3ccccc3)cc2)c(=O)n2ccc3c(ncn3C)c12 [Compound 105, 8-(4-Benzyloxy-phenyl)-3-methyl-7-oxo-3,7-dihydro-imidazo[4,5-a]-quinolizine-10-carboxylic acid (2-methoxy-ethyl)-propyl-amide] | 50 | 5.30
COCCN(C(=O)c1cc(-c2ccc(OCc3ccccc3)cc2)c(=O)n2ccc3cc(C(C)O)sc3c12)c1ccccc1 (racemic) [Compound 75, (RS)-8-(4-Benzyloxy-phenyl)-2-(1-hydroxy-ethyl)-7-oxo-7H-thieno[2,3-a]quinolizine-10-carboxylic acid (2-methoxy-ethyl)-phenyl-amide] | 100 | 5.89
COCCN(CC1CC1)C(=O)c1cc(-c2ccc(OCc3ccccc3)cc2)c(=O)n2ccc3ccsc3c12 [Compound 70, 8-(4-Benzyloxy-phenyl)-7-oxo-7H-thieno[2,3-a]quinolizine-10-carboxylic acid cyclopropylmethyl-(2-methoxy-ethyl)-amide] | 100 | > 6.00
COC(=O)c1cc(-c2ccc(Oc3ccccc3)cc2)c(=O)n2ccc3ccsc3c12 [Compound 96, Methyl 7-oxo-8-(4-phenoxy-phenyl)-7H-thieno[2,3-a]quinolizine-10-carboxylate] | 40 | 6.00
CCc1cc2ccn3c(=O)c(-c4ccc(OCc5ccccc5)cc4)cc(C(=O)N(CCOC)c4ccccc4)c3c2s1 [Compound 78, 8-(4-Benzyloxy-phenyl)-2-ethyl-7-oxo-7H-thieno[2,3-a]quinolizine-10-carboxylic acid (2-methoxy-ethyl)-phenyl-amide] | 40 | 
CCN(CCOC)C(=O)c1cc(-c2ccc(OC)cc2)c(=O)n2ccc3ccsc3c12 [Compound 144, 8-(4-Methoxy-phenyl)-7-oxo-7H-thieno[2,3-a]quinolizine-10-carboxylic acid ethyl-(2-methoxy-ethyl)-amide] | 40 | 5.70
CCOC(=O)c1cc(-c2ccc(C)cc2)c(=O)n2ccc3ccsc3c12 [Compound 151, Ethyl 7-oxo-8-p-tolyl-7H-thieno[2,3-a]quinolizine-10-carboxylate] | 100 | 6.10
COCCN(C(=O)c1cc(-c2ccccc2OC)c(=O)n2ccc3ccsc3c12)c1ccccc1 [Compound 121, 8-(2-Methoxy-phenyl)-7-oxo-7H-thieno[2,3-a]quinolizine-10-carboxylic acid (2-methoxy-ethyl)-phenyl-amide] | 100 | 5.74
COC(=O)c1cc(-c2cccc(C(F)(F)F)c2)c(=O)n2ccccc12 [Compound 17, Methyl 4-oxo-3-(3-trifluoromethyl-phenyl)-4H-quinolizine-1-carboxylate] | 30 | 6.30
Cn1ccnc1COC(=O)c1cc(-c2ccccc2)c(=O)n2ccc3ccsc3c12 [Compound 27, 1-Methyl-1H-imidazol-2-yl-methyl 7-oxo-8-phenyl-7H-thieno[2,3-a]-quinolizine-10-carboxylate methanesulphonate] | 100 | 4.30
COCCNC(=O)c1cc(-c2ccc(OCc3ccccc3)cc2)c(=O)n2ccc3ccsc3c12 [Compound 66, 8-(4-Benzyloxy-phenyl)-7-oxo-7H-thieno[2,3-a]quinolizine-10-carboxylic acid (2-methoxy-ethyl)-amide] | 60 | 4.66
CCN(CC)Cc1cccc(COC(=O)c2cc(-c3ccccc3)c(=O)n3ccc4ccsc4c23)c1 [Compound 60, 3-Diethylamino-methyl-benzyl 7-oxo-8-phenyl-7H-thieno[2,3-a]-quinolizine-10-carboxylate methanesulphonate] | 100 | 5.92
COCCN(Cc1ccccc1)C(=O)c1cc(-c2ccc(C(C)(C)C)cc2)c(=O)n2ccc3ccsc3c12 [Compound 113, 8-(4-tert-Butyl-phenyl)-7-oxo-7H-thieno[2,3-a]quinolizine-10-carboxylicacid benzyl-(2-methoxy-ethyl)-amide] | 100 | 5.52
COCCNC(=O)c1cc(-c2ccc(Oc3ccccc3)cc2)c(=O)n2ccc3ccsc3c12 [Compound 98, 7-Oxo-8-(4-phenoxy-phenyl)-7H-thieno[2,3-a]quinolizine-10-carboxylic acid (2-methoxy-ethyl)-amide] | 70 to 90 | 5.62
COCCN(Cc1ccccc1)C(=O)c1cc(-c2ccc(Oc3ccccc3)cc2)c(=O)n2ccc3ccsc3c12 [Compound 100, 7--Oxo-8-(4-phenoxy-phenyl)-7H-thieno[2,3-a]quinolizine-10-carboxylic acid benzyl-(2-methoxy-ethyl)-amide] | 100 | 6.22
COCCN(Cc1ccccc1)C(=O)c1cc(-c2ccccc2OC)c(=O)n2ccc3ccsc3c12 [Compound 120, 8-(2-Methoxy-phenyl)-7-oxo-7H-thieno[2,3-a]quinolizine-10-carboxylic acid benzyl-(2-methoxy-ethyl)-amide] | 100 | 5.74
COCCNC(=O)c1cc(-c2ccccc2OC)c(=O)n2ccc3ccsc3c12 [Compound 115, 8-(2-Methoxy-phenyl)-7-oxo-7H-thieno[2,3-a]quinolizine-10-carboxylic acid (2-methoxy-ethyl)-amide] | 50 | 4.70
COCCN(C(=O)c1cc(-c2ccc(OCc3ccccc3)cc2)c(=O)n2ccc3cc(C)sc3c12)c1ccccc1 [Compound 74] | 100 | 6.52
COCCN(CCOC)C(=O)c1cc(-c2ccc(-c3ccccc3)cc2)c(=O)n2ccc3ccsc3c12 [Compound 95, 8-(Biphenyl-4-yl)-7-oxo-7H-thieno[2,3-a]quinolizine-10-carboxylic acid bis-(2-methoxy-ethyl)-amide] | 100 | 5.89
COCCN(C(=O)c1cc(-c2ccc(OCc3ccccc3)cc2)c(=O)n2ccc3cc(C(=O)O)sc3c12)c1ccccc1 [Compound 80, 8-(4-Benzyloxy-phenyl)-10-[(2-methoxy-ethyl)-phenyl-carbamoyl]-7-oxo-7H-thieno[2,3-a]quinolizine-2-carboxylic acid] | 30 to 70 | 5.52 to 6.00
